Test results as given in patent US10800814B2, “Cyclic peptidomimetics, compositions containing them and their use in the treatment of diseases associated with angiogenesis” (priority 2015, dated 2020).
Positions of bridges follow the written chain, without caps; N, C: chain ends. Residues, ends and D or L forms follow the SMILES beside them. Chains are numbered I, II in the order given. No end group written: not given here.

Molecular target: T1, VEGF165/NRP-1 (Rattus norvegicus, UniProt Q9QWJ9)
T1 construct: purchased R&D Systems
T1 sequence (Q9QWJ9 22-854 limits assumed): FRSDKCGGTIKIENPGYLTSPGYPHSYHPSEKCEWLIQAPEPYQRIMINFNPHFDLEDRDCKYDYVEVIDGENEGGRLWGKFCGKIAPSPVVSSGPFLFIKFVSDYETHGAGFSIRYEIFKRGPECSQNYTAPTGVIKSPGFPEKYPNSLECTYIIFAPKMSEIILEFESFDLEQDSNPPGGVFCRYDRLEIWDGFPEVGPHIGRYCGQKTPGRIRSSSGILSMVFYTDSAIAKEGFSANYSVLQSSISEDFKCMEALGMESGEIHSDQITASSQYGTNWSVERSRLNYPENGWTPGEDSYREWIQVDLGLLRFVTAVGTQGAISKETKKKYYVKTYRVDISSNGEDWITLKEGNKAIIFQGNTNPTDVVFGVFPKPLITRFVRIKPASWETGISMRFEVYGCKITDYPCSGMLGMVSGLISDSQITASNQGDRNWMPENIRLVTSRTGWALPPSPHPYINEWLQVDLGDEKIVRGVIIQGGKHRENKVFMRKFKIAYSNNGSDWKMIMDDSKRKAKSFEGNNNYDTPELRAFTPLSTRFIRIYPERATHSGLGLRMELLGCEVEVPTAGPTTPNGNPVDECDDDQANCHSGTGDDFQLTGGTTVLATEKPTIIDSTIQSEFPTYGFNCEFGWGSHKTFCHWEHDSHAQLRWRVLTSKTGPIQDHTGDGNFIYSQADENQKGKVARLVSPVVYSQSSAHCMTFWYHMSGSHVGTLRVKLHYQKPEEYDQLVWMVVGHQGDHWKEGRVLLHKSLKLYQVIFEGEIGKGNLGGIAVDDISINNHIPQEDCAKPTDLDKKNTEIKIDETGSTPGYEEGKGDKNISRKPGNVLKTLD
Experiment: biochemical
Format: binding
Settings: for IC50: VEGF165/NRP-1 binding inhibition
Protocol: Selected compounds were tested in vitro by measuring the inhibition binding of VEGF165 to NRP-1. This assay allows the determination of percentage inhibition of the tested compound at a predetermined concentration. Determination of the Inhibitory Activity of the Tested Compounds. The evaluation of the inhibitory effect of peptidomimetics was performed using an enzymatic method denoting the spectrophotometric displacement of the VEGF165 ligand from the specific receptor by the evaluated compound. The studies were performed using polystyrene 96-well plates (Maxisorb, Nunc.). The Procedure for Determining the Inhibition of VEGF165/NRP-1. To evaluate the biological inhibitory activity of selected molecules in each well of flat bottom polystyrene plate of 96-wells (Maxisorb, Nunc,) a 100 μl of a solution containing 2 μg/ml of anti-Fc IgG (Sigma-Aldrich) dissolved in a phosphate buffer PBS (PBS, Sigma) was placed. The plate was allowed to stand overnight at 4° C. The next day, wells were washed three times with 100 μl PBS, and then saturated with 2% bovine serum albumin (BSA, Sigma) in PBS in order to eliminate non-specific interactions. After 2 hours of incubation at 37° C. the following solutions were added portionwise: 50 μl of purified recombinant rat NRP1-Fc (R&D Systems, Abingdon, UK) in a solution of 20 ng/well protein dissolved in PBS-BSA 0.1% tween-80 0.005% (PBT), 50 μl of compound solution in PBT in an appropriate concentration […] The total volume of added solution was 150 μl. After an overnight incubation at 4° C., the wells were washed with PBT and treated with streptavidin-HRP polymer (horseradish peroxidase, Sigma). The plate was incubated for 1 hour at room temperature. […] After 2 hours, the absorbance was measured at wavelength of 415 nm with respect to 470 nm. […] In the control wells the tested compound was absent, but the respective concentration of DMSO was maintained. The heptapeptide A7R (ATWLPPR (SEQ ID NO:1)) was used as a positive control on every 96-well plate.

IC50 | decrease in inhibition with decreasing concentration (reduction of concentrations of 10-0.3 μM) | Molecule
0.18 µM | – | N=C(N)NCCCC(NC(=O)C1CCC(=O)NCCCCC(N)C(=O)N2CCCC2C(=O)N1)C(=O)O (stereo not drawn) [H-c[Lys-Pro-Glu]-Arg-OH] (H-KPER-OH; lactam 1-3; configuration not given here)
– | 5 fold | ATWLPPR [A7R, ATWLPPR, reference compound]
0.46 µM | – | N=C(N)NCCCC(NC(=O)C1CCC(=O)NC(CCCCN)C(=O)N2CCCC2C(=O)NC(C(=O)NC(CCCNC(=N)N)C(=O)O)CCC(=O)NC(CCCCN)C(=O)N2CCCC2C(=O)N1)C(=O)O (stereo not drawn) [(c[Lys-Pro-Glu]-Arg-OH)2] (I: KPER-OH / II: KPER-OH; amide I:3-II:N, I:N-II:3; configuration not given here)
